This is an account of results in EPA's ToxValDB 9.5 (doi:10.2903/j.efsa.2011.2152).

Usually NOAEL stands for the highest dose or exposure tested at which no adverse effect was seen.

Values after ≈ are worked out from the molar mass of the structure shown.

One data set relates to Bird. The note with it: reproductive; mortality.
For another data set, the system named is Coturnix japonica. The note with it: acute; oral; mortality.
The next data set has as its system Cyprinus carpio. The note with it: chronic/long-term; duration: 28 days.
The test system of the next data set is Daphnia magna. The note with it: chronic/long-term; duration: 21 days.
In the next data set the test system is Oncorhynchus mykiss. The note with it: acute; duration: 96 hours; mortality.
For a further data set, the system named is Oryctolagus sp. The settings on record: reproduction developmental; body weight.
A further data set concerns Tagia sp. The settings on record: acute; duration: 14 days; mortality.
The test system of another data set is Aphidius rhopalosiphi. Nature of the data set: LR50; higher = less toxic. The note with it: not reported; mortality.
The subject of the next data set is Typhlodromus pyri. Nature of the data set: LR50; higher = less toxic. The note with it: not reported; mortality.

In the case of `O=C(O)COc1ccc2ccccc2c1` [2-Naphthoxyacetic acid], the results for the NOEC in the data set on Bird, with Cyprinus carpio and in the data set on Daphnia magna were 10 mg/kg-day, 10 mg/L and 6.7 mg/L, respectively. Also, the LD50 was more than 2000 mg/kg-day with Coturnix japonica and 1420 mg/kg-day in the data set with Rattus norvegicus (acute, oral, F, mortality). Also, the LC50 with Oncorhynchus mykiss was determined as 2.39 mg/L (≈ 11.8 µM); with Tagia sp., 0.045 g/ha. Also, the no-observed-adverse-effect level (NOAEL) in the data set on Oryctolagus sp. worked out at 60 mg/kg-day; in the data set with Rattus norvegicus (developmental, development), 60 mg/kg-day; with Rattus norvegicus (reproduction developmental, mortality), 30 mg/kg-day; with Rattus norvegicus (subchronic, duration: 90 days, oral, organ weight) it was 10 mg/kg-day. Also, the results for the LR50 in the data set with Aphidius rhopalosiphi and in the data set with Typhlodromus pyri were more than 100 g/ha and more than 80 g/ha, respectively.
